Experimental data: patent publication US10316039B2, “P2X3 and/or P2X2/3 compounds and methods” (Asana Biosciences, LLC, priority 2013, dated 2019)

System: acetic acid-induced writhing (visceral pain)
Experiment: Acetic acid induced writhing test
Type: in vivo
Settings: mouse, 20, 40 and 60 mg/kg oral gavage, 30 min before i.p. acetic acid, counted 15 min
Protocol: FIG. 4 illustrates the antinociceptive effects of the compound of example 22 in a mouse model of visceral pain. The compound of example 22 was administered by oral gavage at 3 dose levels (20, 40 and 60 mg/kg) 30 min prior to an intraperitoneal injection of a dilute acetic acid solution. When injected into the abdominal cavity, acetic acid induces a distinctive stretching response in the abdomen and at least one hind limb that is assumed to reflect a response to visceral pain. […] Statistical significance is indicated with respect to the vehicle control group and was performed using a one-way ANOVA followed by Dunnett's multiple comparison test. Swiss albino mice of 30-40 g were included in the study. The mice were given an intraperitoneal injection of 0.7% v/v acetic acid solution at an injection volume of 10 mL/kg, 30 min after oral administration of vehicle or test article control. Test articles were administered, typically, at doses between 20 and 60 mg/kg. The mice were placed individually into glass chambers. The number of writhes produced in these animals was counted for 15 min following acetic acid administration. For scoring purposes writhing was indicated by stretching of the abdomen with simultaneous stretching of at least one hind limb. See, e.g., FIG. 4. Statistical analysis was done with One way ANOVA followed by Dunnett's multiple comparison tests. […]

## CCc1cnnn1-c1cc(C(=O)NCc2ccc(C)nc2)cn2c(-c3ccc(C)s3)cnc12 [Example 22]
  pain responses (writhes) after acetic acid: clear dose-related reduction in the pain responses
